Results reported in US10793482B2, “Compounds and compositions for delivery of nutrients and micronutrients to plants” (Spero Energy, Inc., priority 2015, dated 2020).

What was measured:
Type in all cases: in vivo
[1] = test system: bell pepper plants, Capsicum annuum; assay: Iron content in leaves of bell pepper plants grown hydroponically with Fe chelates (elemental analysis); conditions: for Amount of iron delivered / iron content by plant tissue analyses (in words): bell pepper plants, 4 ppm iron chelate, compared with EDTA or EDDHA chelates; for Iron content in plant leaves: leaves after week 2, finished iron solution of 4 ppm in no-iron Steiner hydroponic solution, pH 8
Description: (§1) Seven (7) identical cultivated varieties of bell pepper plants, Capsicum annuum were grown in individual five-gallon containers deep-water-culture (DWC) containers (the Root Spa bucket system by Hydrofarm) that is continuously aerated by a single oxygen line that stems from an air pump in a soilless media of rockwool surrounded by clay pebbles in a mesh tray that rests on top of the buckets. The pepper plants were grown indoors with an ambient air temperature of around 72° F. The light source came from high-pressure sodium bulbs with a light interval of 12 hours on and 12 hours off.
(§2) The pepper plants were grown with a beginning identical nutritional mix similar to that of a Steiner hydroponic solution. […] The total solution pH was raised to 8 and adjusted daily to maintain the pH at 8. Potassium hydroxide was used to increase the pH. There were 7 treatments of iron added (or not added) to each bucket as follows:
(§3) As more water was needed, the appropriate amount of no-iron Steiner solution and Fe-chelate/Fe-chelate mixture was added to maintain a finished iron solution of 4 ppm.
(§4) Leaf samples (at least two per plant) were collected at the end of the normal nutritional program (2 weeks). […] Elemental analyses of iron content in the plants leaves was carried out after week 2.

[2] = test system: bell pepper plants, Capsicum annuum; assay: Overall plant growth of bell pepper plants grown hydroponically with Fe chelates; conditions: 2 weeks; 4 ppm iron, Steiner hydroponic solution, pH 8; compared with Fe EDTA and Fe EDDHA
Description: as §1, §2, §3, §4

Calibrachoa plants = assay: Iron content in plant tissue after drench with Fe treatments (elemental analysis), Calibrachoa; conditions: 4 ppm drench for 3 weeks; soilless media with lime, target pH 7.0
Description: (§5) In order to establish the efficacy of PP-derived chelates, we applied the PP-Cres-Asp iron chelate to two plant species known in the field to have difficulties in absorbing iron, Calibrachoa and Petunia plants. In this trial, the plants were grown in soilless media (80% peat and 20% perlite) with lime to increase the target pH to 7.0, a pH that is averse to iron uptake in plants. All plants were top dressed with a standard polymer-coated fertilizer to provide the standard nitrogen, phosphorus, and potassium nutrition along with other micro nutrients, excluding iron. Lighting was controlled for 16-hour days. There were 3 treatments of iron added (or not added) to each bucket as follows:
(§6) Treatments 1-3 were applied to the respective plants as a drench for 3 weeks. Following 3 weeks of treatment, tissue samples were gathered from each plant and subjected to elemental analysis for measurement of iron content in the plant tissue.

Petunia plants = assay: Iron content in plant tissue after drench with Fe treatments (elemental analysis), Petunia; conditions: 4 ppm drench for 3 weeks; soilless media with lime, target pH 7.0
Description: as §5, §6

Molecule	Amount of iron delivered / iron content by plant tissue analyses (in words) [1]	Overall growth of the plants [2]	Iron content in plant leaves [1]	Fe in plant tissue, Calibrachoa (Calibrachoa plants)	Fe in plant tissue, Petunia (Petunia plants)
CCCc1cc(CN(CC(=O)O)CC(=O)O)c(O)c(OC)c1 [DHE-IDA]	substantially greater than EDTA or EDDHA chelates	comparable to controls using conventional EDTA or EDDHA and superior to plants where only iron salts without chelate were used	–	–	–
O=C(O)CN(CCN(CC(=O)O)CC(=O)O)CC(=O)O [Fe EDTA, ethylenediaminetetraacetic acid, reference compound]	–	–	134 ppm	39 ppm	45 ppm
Cc1ccc(O)c(CN(Cc2cc(C)ccc2O)C(CC(=O)O)C(=O)O)c1 (stereo not drawn) [PP-Cres-Asp]	–	–	–	56 ppm	80 ppm
ethylenediamine-N,N′-bis(2-hydroxyphenylacetic acid [Fe EDDHA, reference compound]	–	–	91 ppm	–	–
p-cresol iminodiacetic acid [Cres-IDA]	substantially greater than EDTA or EDDHA chelates	–	–	–	–
